Measured values as given in patent US8586617B2, “Aminomethyl-4-imidazoles” (Hoffmann-La Roche Inc., priority 2006, dated 2013).
Read-outs that look alike come from different tables or passages of the source.

Target: TAAR1 (Mus musculus (Mouse), UniProt Q923Y8)
Assay: TAAR1 radioligand binding assay ([3H]-rac-2-(1,2,3,4-tetrahydro-1-naphthyl)-2-imidazoline, membranes of stably transfected HEK293 cells)
[1] = read-out: Ki (μM) mouse, mouse TAAR1, radioligand [3H]-rac-2-(1,2,3,4-tetrahydro-1-naphthyl)-2-imidazoline at 60 nM, 4° C., 30 minutes

TAAR1, sequence (Q923Y8 whole entry): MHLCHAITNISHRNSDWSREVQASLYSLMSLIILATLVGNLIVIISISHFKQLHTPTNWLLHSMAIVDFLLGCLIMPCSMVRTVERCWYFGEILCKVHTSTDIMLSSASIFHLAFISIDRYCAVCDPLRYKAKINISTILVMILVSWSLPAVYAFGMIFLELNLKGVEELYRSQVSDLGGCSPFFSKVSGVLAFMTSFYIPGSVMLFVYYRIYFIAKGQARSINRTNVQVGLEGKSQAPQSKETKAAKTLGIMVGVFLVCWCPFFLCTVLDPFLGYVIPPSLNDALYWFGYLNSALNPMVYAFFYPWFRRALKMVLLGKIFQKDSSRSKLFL
Protocol: The ability of the compounds of the present invention to bind to TAAR1 was investigated in accordance with the test given hereinafter.
For the generation of stably transfected cell lines HEK293 cells were transfected with the pIRESneo2 expression plasmids containing the TAAR coding sequences (described above) with Lipofectamine 2000 (Invitrogen) according to the instructions of the manufacturer, and 24 hours post transfection the culture medium was supplemented with 1 mg/ml G418 (Sigma, Buchs, Switzerland). After a culture period of about 10 days, clones were isolated, expanded and tested for responsiveness to trace amines (all compounds purchased from Sigma) with the cAMP Biotrak Enzyme immunoassay (EIA) System (Amersham) following the non-acetylation EIA procedure provided by the manufacturer.
Cells at confluence were rinsed with ice-cold phosphate buffered saline without Ca^2+ and Mg^2+ containing 10 mM EDTA and pelleted by centrifugation at 1000 rpm for 5 min at 4° C. The pellet was then washed twice with ice-cold phosphate buffered saline and cell pellet was frozen immediately by immersion in liquid nitrogen and stored until use at −80° C. The cell pellet was then suspended in 20 ml HEPES-NaOH (20 mM), pH 7.4 containing 10 mM EDTA, and homogenized with a Polytron (PT 3000, Kinematica) at 10,000 rpm for 10 seconds. The homogenate was centrifuged at 48,000×g for 30 minutes at 4° C. and the pellet resuspended in 20 ml HEPES-NaOH (20 mM), pH 7.4 containing 0.1 mM EDTA (buffer A), and homogenized with a Polytron at 10,000 rpm for 10 seconds. The homogenate was then centrifuged at 48,000×g for 30 minutes at 4° C. and the pellet resuspended in 20 ml buffer A, and homogenized with a Polytron at 10,000 rpm for 10 seconds. […] The homogenate was then centrifuged at 48,000×g for 10 minutes at 4° C., resuspended in HEPES-NaOH (20 mM), pH 7.0 including MgCl2 (10 mM) and CaCl2 (2 ml) (buffer B) at 200 μg protein per ml and homogenized with a Polytron at 10,000 rpm for 10 seconds.
Binding assay was performed at 4° C. in a final volume of 1 ml, and with an incubation time of 30 minutes. […] Non-specific binding was defined as the amount of [^3H]-rac-2-(1,2,3,4-tetrahydro-1-naphthyl)-2-imidazoline bound in the presence of the appropriate unlabelled ligand (10 μM). Competing ligands were tested in a wide range of concentrations (10 pM-30 μM). […] Each experiment was performed in duplicate. All incubations were terminated by rapid filtration through UniFilter-96 plates (Packard Instrument Company) and glass filter GF/C, pre-soaked for at least 2 h in polyethylenimine 0.3%, and using a Filtermate 96 Cell Harvester (Packard Instrument Company). The tubes and filters were then washed 3 times with 1 ml aliquots of cold buffer B. Filters were not dried and soaked in Ultima gold (45 D/well, Packard Instrument Company) and bound radioactivity was counted by a TopCount Microplate Scintillation Counter (Packard Instrument Company).

## CC(C)N(Cc1cnc[nH]1)c1cccc(Oc2ccc(Cl)cc2)c1 [Example 149, [3-(4-Chloro-phenoxy)-phenyl]-(3H-imidazol-4-ylmethyl)-isopropyl-amine]
[1]
  Ki: 0.0082 µM

## c1ccc(Nc2ccc(NCc3cnc[nH]3)cc2)cc1 [Example 155, N-(1H-Imidazol-4-ylmethyl)-N′-phenyl-benzene-1,4-diamine]
[1]
  Ki: 0.0094 µM

## CC(C)N(Cc1cnc[nH]1)c1ccc(F)c(Br)c1 [Example 170, (3-Bromo-4-fluoro-phenyl)-(3H-imidazol-4-ylmethyl)-isopropyl-amine]
[1]
  Ki: 0.0025 µM

## CN(Cc1cnc[nH]1)c1cccc(Oc2ccccc2)c1 [Example 175, (3H-Imidazol-4-ylmethyl)-methyl-(3-phenoxy-phenyl)-amine]
[1]
  Ki: 0.0036 µM

## Fc1cc(Cl)cc(NCc2cnc[nH]2)c1 [Example 179, (3-Chloro-5-fluoro-phenyl)-(1H-imidazol-4-ylmethyl)-amine]
[1]
  Ki: 0.0026 µM

## Fc1cc(NCc2cnc[nH]2)ccc1Br [Example 181, (4-Bromo-3-fluoro-phenyl)-(1H-imidazol-4-ylmethyl)-amine]
[1]
  Ki: 0.0098 µM

## Fc1ccc(NCc2cnc[nH]2)cc1Br [Example 183, (3-Bromo-4-fluoro-phenyl)-(3H-imidazol-4-ylmethyl)-amine]
[1]
  Ki: 0.0051 µM

## COc1cccc(N(C)Cc2cnc[nH]2)c1 [Example 186, (3H-Imidazol-4-ylmethyl)-(3-methoxy-phenyl)-methyl-amine]
[1]
  Ki: 0.0089 µM

## CCN(Cc1cnc[nH]1)c1cccc(Oc2ccccc2)c1 [Example 188, Ethyl-(3H-imidazol-4-ylmethyl)-(3-phenoxy-phenyl)-amine]
[1]
  Ki: 0.0024 µM

## CN(Cc1cnc[nH]1)c1cccc(OC(F)F)c1 [Example 189, (3-Difluoromethoxy-phenyl)-(3H-imidazol-4-ylmethyl)-methyl-amine]
[1]
  Ki: 0.0068 µM

## CN(Cc1cnc[nH]1)c1cccc(OCc2ccccc2)c1 [Example 190, (3-Benzyloxy-phenyl)-(3H-imidazol-4-ylmethyl)-methyl-amine]
[1]
  Ki: 0.0014 µM

## CCN(Cc1cnc[nH]1)c1cccc(OCc2ccccc2)c1 [Example 192, (3-Benzyloxy-phenyl)-ethyl-(3H-imidazol-4-ylmethyl)-amine]
[1]
  Ki: 0.001 µM

## CCN(Cc1cnc[nH]1)c1cccc(OC)c1 [Example 193, Ethyl-(3H-imidazol-4-ylmethyl)-(3-methoxy-phenyl)-amine]
[1]
  Ki: 0.008 µM

## CCN(Cc1cnc[nH]1)c1ccc(F)c(OC)c1 [Example 194, Ethyl-(4-fluoro-3-methoxy-phenyl)-(3H-imidazol-4-ylmethyl)-amine]
[1]
  Ki: 0.0048 µM

## CCN(Cc1cnc[nH]1)c1cccc(OC(F)F)c1 [Example 195, (3-Difluoromethoxy-phenyl)-ethyl-(3H-imidazol-4-ylmethyl)-amine]
[1]
  Ki: 0.0042 µM

## Clc1cccc(Oc2cccc(NCc3cnc[nH]3)c2)c1 [Example 200, [3-(3-Chloro-phenoxy)-phenyl]-(3H-imidazol-4-ylmethyl)-amine]
[1]
  Ki: 0.0028 µM

## Fc1ccc(NCc2cnc[nH]2)cc1Oc1ccccc1 [Example 202, (4-Fluoro-3-phenoxy-phenyl)-(3H-imidazol-4-ylmethyl)-amine]
[1]
  Ki: 0.0084 µM

## COc1cc(N(Cc2cnc[nH]2)C(C)C)ccc1Cl [Example 204, (4-Chloro-3-methoxy-phenyl)-(3H-imidazol-4-ylmethyl)-isopropyl-amine]
[1]
  Ki: 0.005 µM

## CC(C)N(Cc1cnc[nH]1)c1cccc(Oc2cccc(Cl)c2)c1 [Example 206, [3-(3-Chloro-phenoxy)-phenyl]-(3H-imidazol-4-ylmethyl)-isopropyl-amine]
[1]
  Ki: 0.005 µM

## CC(C)N(Cc1cnc[nH]1)c1cccc(COc2ccccc2)c1 [Example 207, (3H-Imidazol-4-ylmethyl)-isopropyl-(3-phenoxymethyl-phenyl)-amine]
[1]
  Ki: 0.002 µM

## CC(C)N(Cc1cnc[nH]1)c1ccc(F)c(Oc2ccccc2)c1 [Example 208, (4-Fluoro-3-phenoxy-phenyl)-(3H-imidazol-4-ylmethyl)-isopropyl-amine]
[1]
  Ki: 0.003 µM

## Brc1cccc(NCc2cnc[nH]2)c1 [Example 225, (3-Bromo-phenyl)-(3H-imidazol-4-ylmethyl)-amine]
[1]
  Ki: 0.001 µM

## FC(F)(F)c1cc(Br)cc(NCc2cnc[nH]2)c1 [Example 226, (3-Bromo-5-trifluoromethyl-phenyl)-(3H-imidazol-4-ylmethyl)-amine]
[1]
  Ki: 0.001 µM

## CC(C)c1cccc(NCc2cnc[nH]2)c1 [Example 228, (3H-Imidazol-4-ylmethyl)-(3-isopropyl-phenyl)-amine]
[1]
  Ki: 0.002 µM

## CCN(Cc1cnc[nH]1)c1nc(Cl)cc(Cl)n1 [Example 237, (4,6-Dichloro-pyrimidin-2-yl)-ethyl-(1H-imidazol-4-ylmethyl)-amine]
[1]
  Ki: 0.004 µM

## CC(C)N(Cc1cnc[nH]1)c1cccc(Br)c1 [Example 242, (3-Bromo-phenyl)-(3H-imidazol-4-ylmethyl)-isopropyl-amine]
[1]
  Ki: 0.001 µM

## CC(C)N(Cc1cnc[nH]1)c1cccc(Br)n1 [Example 244, (6-Bromo-pyridin-2-yl)-(3H-imidazol-4-ylmethyl)-isopropyl-amine]
[1]
  Ki: 0.004 µM

## CCN(Cc1cnc[nH]1)c1ccc(Cl)c(Cl)c1 [Example 247, (3,4-Dichloro-phenyl)-ethyl-(1H-imidazol-4-ylmethyl)-amine]
[1]
  Ki: 0.001 µM

## CCN(Cc1cnc[nH]1)c1cccc(C(F)(F)F)n1 [Example 251, Ethyl-(1H-imidazol-4-ylmethyl)-(6-trifluoromethyl-pyridin-2-yl)-amine]
  Ki: 0.009 µM

## CCN(Cc1cnc[nH]1)c1cccc(Br)c1 [Example 275, (3-Bromo-phenyl)-ethyl-(3H-imidazol-4-ylmethyl)-amine]
[1]
  Ki: 0.001 µM

## Fc1cc(F)cc(NCc2cnc[nH]2)c1 [Example 277, (3,5-Difluoro-phenyl)-(1H-imidazol-4-ylmethyl)-amine]
[1]
  Ki: 0.006 µM

## Brc1ccc(NCc2cnc[nH]2)cc1Br [Example 279, (3,4-Dibromo-phenyl)-(1H-imidazol-4-ylmethyl)-amine]
[1]
  Ki: 0.004 µM

## Fc1ccc(NCc2cnc[nH]2)cc1Cl [Example 281, (3-Chloro-4-fluoro-phenyl)-(1H-imidazol-4-ylmethyl)-amine]
[1]
  Ki: 0.004 µM

## CN(Cc1cnc[nH]1)c1cccc(Br)c1 [Example 284, (3-Bromo-phenyl)-(3H-imidazol-4-ylmethyl)-methyl-amine]
[1]
  Ki: 0.002 µM

## CN(Cc1cnc[nH]1)c1ccc(F)c(F)c1 [Example 287, (3,4-Difluoro-phenyl)-(1H-imidazol-4-ylmethyl)-methyl-amine]
[1]
  Ki: 0.007 µM

## CN(Cc1cnc[nH]1)c1ccc(Cl)c(Cl)c1 [Example 288, (3,4-Dichloro-phenyl)-(1H-imidazol-4-ylmethyl)-methyl-amine]
[1]
  Ki: 0.002 µM

## CN(Cc1cnc[nH]1)c1cc(Cl)cc(Cl)c1 [Example 291, (3,5-Dichloro-phenyl)-(1H-imidazol-4-ylmethyl)-methyl-amine]
[1]
  Ki: 0.001 µM

## CN(Cc1cnc[nH]1)c1cc(F)cc(F)c1 [Example 292, (3,5-Difluoro-phenyl)-(1H-imidazol-4-ylmethyl)-methyl-amine]
[1]
  Ki: 0.007 µM

## CC(C)N(Cc1cnc[nH]1)c1ccc(Br)cc1 [Example 296, (4-Bromo-phenyl)-(1H-imidazol-4-ylmethyl)-isopropyl-amine]
[1]
  Ki: 0.004 µM

## CC(C)N(Cc1cnc[nH]1)c1ccc(Br)c(Br)c1 [Example 297, (3,4-Dibromo-phenyl)-(1H-imidazol-4-ylmethyl)-isopropyl-amine]
[1]
  Ki: 0.001 µM

## CCN(Cc1cnc[nH]1)c1ccc(Br)cc1 [Example 302, (4-Bromo-phenyl)-ethyl-(1H-imidazol-4-ylmethyl)-amine]
[1]
  Ki: 0.003 µM

## CCN(Cc1cnc[nH]1)c1cc(Cl)cc(Cl)c1 [Example 303, (3,5-Dichloro-phenyl)-ethyl-(1H-imidazol-4-ylmethyl)-amine]
[1]
  Ki: 0.001 µM

## CCN(Cc1cnc[nH]1)c1ccc(Br)c(F)c1 [Example 305, (4-Bromo-3-fluoro-phenyl)-ethyl-(1H-imidazol-4-ylmethyl)-amine]
[1]
  Ki: 0.002 µM

## CCN(Cc1cnc[nH]1)c1cc(F)cc(F)c1 [Example 306, (3,5-Difluoro-phenyl)-ethyl-(1H-imidazol-4-ylmethyl)-amine]
[1]
  Ki: 0.002 µM

## CCN(Cc1cnc[nH]1)c1ccc(Cl)c(F)c1 [Example 307, (4-Chloro-3-fluoro-phenyl)-ethyl-(1H-imidazol-4-ylmethyl)-amine]
[1]
  Ki: 0.002 µM

## CCN(Cc1cnc[nH]1)c1cc(F)cc(Cl)c1 [Example 308, (3-Chloro-5-fluoro-phenyl)-ethyl-(1H-imidazol-4-ylmethyl)-amine]
[1]
  Ki: 0.001 µM

## CCN(Cc1cnc[nH]1)c1ccc(F)c(Br)c1 [Example 309, (3-Bromo-4-fluoro-phenyl)-ethyl-(1H-imidazol-4-ylmethyl)-amine]
[1]
  Ki: 0.003 µM

## CCN(Cc1cnc[nH]1)c1ccc(F)c(Cl)c1 [Example 312, (3-Chloro-4-fluoro-phenyl)-ethyl-(1H-imidazol-4-ylmethyl)-amine]
[1]
  Ki: 0.001 µM

## CCN(Cc1cnc[nH]1)c1ccc(Cl)c(OC)c1 [Example 324, (4-Chloro-3-methoxy-phenyl)-ethyl-(1H-imidazol-4-ylmethyl)-amine]
[1]
  Ki: 0.002 µM

## Clc1cc(NCc2cnc[nH]2)ccc1Br [Example 325, (4-Bromo-3-chloro-phenyl)-(1H-imidazol-4-ylmethyl)-amine]
[1]
  Ki: 0.002 µM

## FC(F)(F)Oc1ccc(NCc2cnc[nH]2)cc1Cl [Example 327, (3-Chloro-4-trifluoromethoxy-phenyl)-(1H-imidazol-4-ylmethyl)-amine]
[1]
  Ki: 0.002 µM

## CC(C)N(Cc1cnc[nH]1)c1ccc(Br)c(Cl)c1 [Example 331, (4-Bromo-3-chloro-phenyl)-(1#H!-imidazol-4-ylmethyl)-isopropyl-amine]
[1]
  Ki: 0.001 µM

## CCN(Cc1cnc[nH]1)c1ccc(OC(F)(F)F)c(Cl)c1 [Example 333, (3-Chloro-4-trifluoromethoxy-phenyl)-ethyl-(1H-imidazol-4-ylmethyl)-amine]
[1]
  Ki: 0.001 µM
